Here are results for 92 compounds from ChEMBL document CHEMBL5223128, “Biphenyl-based small molecule inhibitors: Novel cancer immunotherapeutic agents targeting PD-1/PD-L1 interaction” (Bioorg Med Chem, 2022).

Some results are limits rather than exact numbers.

In one test the target is T1, Programmed cell death protein 1/Programmed cell death 1 ligand 1 (Homo sapiens, UniProt Q9NZQ7). In words: Inhibition of human PD-1/PDL1 protein-protein interaction by HTRF assay. The format is protein-complex assay.
T1 sequence (Q15116 whole entry): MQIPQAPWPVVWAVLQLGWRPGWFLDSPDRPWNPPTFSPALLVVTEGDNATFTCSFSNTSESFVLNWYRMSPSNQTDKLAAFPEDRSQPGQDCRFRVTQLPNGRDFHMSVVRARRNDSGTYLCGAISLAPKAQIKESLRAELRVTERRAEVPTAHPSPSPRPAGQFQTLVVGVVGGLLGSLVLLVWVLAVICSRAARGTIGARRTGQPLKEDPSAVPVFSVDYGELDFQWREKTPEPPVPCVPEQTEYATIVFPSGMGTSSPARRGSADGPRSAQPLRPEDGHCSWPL
T1 sequence (Q9NZQ7 whole entry): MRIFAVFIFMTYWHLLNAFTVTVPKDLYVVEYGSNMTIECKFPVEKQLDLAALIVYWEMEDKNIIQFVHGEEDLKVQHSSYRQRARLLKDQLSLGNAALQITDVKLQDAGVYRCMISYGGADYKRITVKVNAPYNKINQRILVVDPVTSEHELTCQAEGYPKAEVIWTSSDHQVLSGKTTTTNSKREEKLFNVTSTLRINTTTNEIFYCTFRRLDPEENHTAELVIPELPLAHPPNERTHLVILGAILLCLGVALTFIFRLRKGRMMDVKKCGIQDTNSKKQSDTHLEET
Usually IC50 stands for the concentration at which inhibition is half-maximal. `N#Cc1c(Nc2nccc3cc(CNCCO)cnc23)cccc1-c1ccc2c(c1)OCCO2`: the IC50 is ≤ 10 nM.
Same read-out and setting: the same measure for `COc1cccc(-c2cccc(NC(=O)c3nc4c(n3C)CCNC4)c2C#N)c1F`: ≤ 100 nM; for `N#Cc1c(NC(=O)c2ccc(CNCCO)cn2)cccc1C1=CCCCC1`: ≤ 10 nM; for `COc1cc(OCc2cccc(-c3ccccc3)c2C)cc(OC)c1CCCC1CC(=O)N1` (stereo not drawn): 22 nM.
Take `O=C(Nc1cccc(-c2ccc3c(c2)OCCO3)c1Cl)c1nc2c(s1)CNCC2`: the IC50 is ≤ 100 nM.
Still for that read-out and setting: the same measure for `Cc1c(NC(=O)c2nc3c(s2)CN(CCO)CC3)cccc1-c1ccccc1`: ≤ 100 nM; for `Cc1c(-c2ccccc2)cccc1-c1nc2c(s1)CN(C)CC2`: ≤ 100 nM.
On the same count and under the same terms, then `Cc1cc(CNCCO)cc2nc(-c3cccc(-c4ccccc4)c3C#N)oc12`, with ≤ 10 nM; and `COc1cc2oc(-c3cccc(-c4ccccc4)c3C)nc2cc1CNCCO`, with ≤ 10 nM.
On the same count and under the same terms, the same measure for `Cn1cnc2c(-c3cccc(NC(=O)c4ccc(CNCCO)cn4)c3C#N)cccc21`: ≤ 10 nM; for `Cc1c(-c2ccccc2)cccc1-c1nc2c(o1)CNCC2`: ≤ 100 nM.
As for `N#Cc1c(NC(=O)c2nc3c(s2)CNCC3)cccc1-c1ccc2c(c1)OCC2`, the IC50 is ≤ 100 nM.
Still for that read-out and setting: then `Cc1c(-c2ccccc2)cccc1-c1nc2c(o1)CCN(C)C2`, with ≤ 100 nM; and `N#CCc1cc(CNCCO)cn2nc(-c3cccc(-c4ccc5c(c4)OCCO5)c3C#N)nc12`, with ≤ 100 nM.
Same read-out and setting: then `Cc1c(-c2ccccc2)cccc1-c1cn2nc(CNCCO)cnc2n1`, with ≤ 100 nM.
Same read-out and setting: then `Cc1c(-c2ccccc2)cccc1-c1nc2cc(CN3CCCC[C@H]3C(=O)O)c(OCCCC#N)cc2o1`, with ≤ 10 nM; and `COc1cccc(-c2ccnc(-c3nc4c(s3)CNCC4)c2C)c1`, with ≤ 100 nM; and `Cc1c(-c2ccccc2)cccc1-c1nc2cc(CNCCO)c(OCC#N)cc2o1`, with ≤ 10 nM.
As for `N#Cc1c(Nc2nccc3nc(CNCCO)cnc23)cccc1C1=CCCCC1`, the IC50 is ≤ 10 nM.
In the case of `N#Cc1c(NC(=O)c2nc3c(s2)CNCC3)cccc1-c1ccccc1Cl`, the IC50 is ≤ 100 nM.
Turning to `COc1cccc(-c2cccc(-c3nc4c(s3)CNCC4)c2C)c1`, the IC50 is ≤ 100 nM.
On the same count and under the same terms, the same measure for `Cc1c(NC(=O)c2nc3c(s2)CNCC3)cccc1-c1ccccc1`: ≤ 100 nM; for `COc1cccc(-c2cccc(NC(=O)c3nc4c(n3C)CCN(CCO)C4)c2C#N)c1F`: ≤ 100 nM; for `Cc1c(-c2ccccc2)cccc1-c1nc2cc(CNCCO)cc(C)c2o1`: ≤ 10 nM.
On the same count and under the same terms, then `Cn1c(C(=O)Nc2cccc(-c3ccc4c(c3)OCCO4)c2C#N)nc2c1CCNC2`, with ≤ 100 nM; and `Cc1c(NC(=O)c2nc3c(s2)CNCC3)cccc1-c1cccc2c1cnn2C`, with ≤ 100 nM; and `N#Cc1c(-c2ccc3c(c2)OCCO3)cccc1-c1nc2c(s1)CNCC2`, with ≤ 100 nM.
On the same count and under the same terms, then `COc1cc(F)cc(-c2cccc(NC(=O)c3nc4c(s3)CNCC4)c2C#N)c1`, with ≤ 100 nM; and `N#Cc1c(NC(=O)c2nc3c(s2)CNCC3)cccc1-c1ccccc1`, with ≤ 100 nM.
On to `Cc1c(Nc2nccc3cc(CNCCO)cnc23)cccc1-c1ccccc1`, for which the 50% inhibitory concentration (IC50) was ≤ 10 nM.
The same measure, in the same setting: then `Cc1c(Nc2nccc3c(CN4CCCCC4C(=O)O)ccnc23)cccc1-c1ccccc1` (stereo not drawn), with ≤ 10 nM; and `Cc1c(Nc2nccc3cc(CNCCO)cnc23)cccc1-c1ccc2c(c1)OCCO2`, with ≤ 10 nM.
Regarding `COc1cccc(-c2cccc(NC(=O)c3nc4c(n3C)CCNC4)c2C)c1F`, the half-maximal inhibitory concentration (IC50) was ≤ 100 nM.
On the same count and under the same terms, the same measure for `Cn1ncc2c(-c3cccc(NC(=O)c4nc5c(s4)CNCC5)c3C#N)cccc21`: ≤ 100 nM; for `Cc1cc(CNCCO)cc2nc(-c3cccc(-c4ccc5c(c4)OCCO5)c3C#N)oc12`: ≤ 10 nM.
As to `N#Cc1c(-c2ccc3c(c2)OCCO3)cccc1-c1nc2c(C#N)cc(CNCCO)cn2n1`, the concentration for half-maximal inhibition (IC50) was ≤ 100 nM.
Same read-out and setting: then `Cc1c(-c2nc3c(s2)CNCC3)cccc1-c1cccc2c1cnn2C`, with ≤ 100 nM; and `Cc1c(-c2ccccc2)cccc1-c1nc2c(CC#N)cc(CNCCO)cn2n1`, with ≤ 100 nM; and `Cc1c(-c2ccccc2)cccc1-c1nc2cc(CN3CCCC[C@H]3C(=O)O)c(OCC#N)cc2o1`, with ≤ 10 nM.
Take `Cc1c(-c2ccccc2)cccc1-c1nc2c(s1)CN(CCCC(=O)O)CC2`: the IC50 was ≤ 100 nM.
The same measure, in the same setting: then `Cc1c(NC(=O)c2nc3c(s2)CN(CC(=O)O)CC3)cccc1-c1ccccc1`, with ≤ 100 nM.
Consider `Cc1c(-c2ccccc2)cccc1-c1nc2c(s1)CN(CCO)CC2`, for which the concentration for half-maximal inhibition (IC50) is ≤ 100 nM.
As to `Cc1c(-c2ccccc2)cccc1-c1nc2c(s1)CN(C[C@H](C)O)CC2`, the IC50 was ≤ 100 nM.
Turning to `N#Cc1c(NC(=O)c2nc3c(s2)CNCC3)cccc1C1=CCCCC1`, the 50% inhibitory concentration (IC50) was ≤ 100 nM.
Same read-out and setting: the same measure for `O=C(Nc1cccc(-c2ccccc2)c1Cl)c1nc2c(s1)CNCC2`: ≤ 100 nM.
On the same count and under the same terms, the same measure for `Cc1cc(C(=O)Nc2cccc(-c3ccccc3)c2C)ncc1CN1CCCC[C@H]1C(=O)O`: ≤ 10 nM; for `Cc1c(NC(=O)c2nc3c(s2)CNCC3)cccc1-c1cccc2[nH]ncc12`: ≤ 100 nM; for `Cc1c(-c2ccc3c(c2)OCCO3)cccc1-c1nc2cc(CN3CCCC[C@H]3C(=O)O)c(OCC#N)cc2o1`: ≤ 10 nM.
On the same count and under the same terms, the same measure for `N#Cc1c(-c2ccc3c(c2)OCCO3)cccc1-c1nc2c(Cl)cc(CNCCO)cn2n1`: ≤ 100 nM; for `Cc1c(-c2ccccc2)cccc1-n1cc2c(n1)CNCC2`: ≤ 100 nM; for `Cc1c(-c2ccccc2)cccc1-c1nc2cc(CNCCO)ccc2o1`: ≤ 10 nM.
Consider `CCOc1cccc(-c2cccc(-c3nc4c(s3)CNCC4)c2C)c1`, for which the IC50 is ≤ 100 nM.
Still for that read-out and setting: the same measure for `Cc1c(-c2ccc3c(c2)OCCO3)ccnc1-c1nc2c(s1)CNCC2`: ≤ 100 nM.
Same read-out and setting: then `Cc1c(-c2ccccc2)cccc1-c1nc2cc(CNCCO)ccn2n1`, with ≤ 100 nM.
On to `Cc1c(-c2ccccc2)cccc1-c1nc2c(s1)CNCC2`, for which the half-inhibitory concentration (IC50) is ≤ 100 nM.
Still for that read-out and setting: then `Cc1c(-c2ccccc2)cccc1-c1nc2c(CCCC#N)cc(CNCCO)cn2n1`, with ≤ 100 nM.
Still for that read-out and setting: then `COc1cc(OC)cc(-c2cccc(-c3nc4c(s3)CNCC4)c2C)c1`, with ≤ 100 nM.
Turning to `Cc1c(Nc2nccc3cc(CNCCO)cnc23)cccc1C1=CCCCC1`, the IC50 is ≤ 10 nM.
On the same count and under the same terms, the same measure for `Cc1c(-c2cccc(CC(N)=O)c2)cccc1-c1nc2c(s1)CNCC2`: ≤ 100 nM; for `N#Cc1c(NC(=O)c2nc3c(s2)CNCC3)cccc1-c1ccc2c(c1)OCCO2`: ≤ 100 nM; for `COc1cccc(-c2cccc(NC(=O)c3nc4c(s3)CNCC4)c2Cl)c1F`: ≤ 100 nM.
On to `Cc1c(-c2ccccc2)ccnc1-c1nc2c(s1)CNCC2`, for which the IC50 was ≤ 100 nM.
On to `COc1cccc(-c2cccc(NC(=O)c3nc4c(s3)CNCC4)c2C#N)c1`, for which the IC50 is ≤ 100 nM.
As for `Cc1c(-c2ccccc2)cccc1-c1nc2cc(CNCCO)c(OCc3ccccn3)cc2o1`, the IC50 was ≤ 10 nM.
On the same count and under the same terms, the same measure for `Cc1c(-c2cccc(C(N)=O)c2)cccc1-c1nc2c(s1)CNCC2`: ≤ 100 nM.
Same read-out and setting: the same measure for `COc1cccc(-c2cccc(NC(=O)c3nc4c(s3)CNCC4)c2C)c1F`: ≤ 100 nM; for `N#Cc1c(NC(=O)c2ccc(CNCCO)cn2)cccc1-c1ccccc1`: ≤ 10 nM; for `Cc1c(-c2nc3cc(CNCCO)c(OCC#N)cc3o2)cccc1-c1ccccc1F`: ≤ 10 nM.
The same measure, in the same setting: the same measure for `Cn1c(C(=O)Nc2cccc(-c3ccc4c(c3)OCCO4)c2C#N)nc2c1CCN(CCO)C2`: ≤ 100 nM; for `Cc1c(-c2ccccc2)ccnc1-c1nc2c(s1)CN(C1CCC(C(=O)O)CC1)CC2` (stereo not drawn): ≤ 100 nM.
Regarding `N#Cc1c(NC(=O)c2nc3c(s2)CNCC3)cccc1-c1ccccc1F`, the half-inhibitory concentration (IC50) was ≤ 100 nM.
Same read-out and setting: the same measure for `Cc1c(-c2ccccc2)cccc1-c1nc2c(o1)CCNC2`: ≤ 100 nM.
Turning to `Cn1ncc2c(-c3cccc(NC(=O)c4nc5c(s4)CNCC5)c3Cl)cccc21`, the concentration for half-maximal inhibition (IC50) was ≤ 100 nM.
In the case of `Cc1c(NC(=O)c2nc3c(s2)CNCC3)cc(F)cc1-c1ccc2c(c1)OCCO2`, the IC50 is ≤ 100 nM.
As to `Cc1cc(C(=O)Nc2cccc(-c3ccccc3)c2C)ncc1CNCCO`, the concentration for half-maximal inhibition (IC50) is ≤ 10 nM.
Same read-out and setting: the same measure for `COc1c(CNCCO)cnc2c(Nc3cccc(-c4ccccc4)c3C)nccc12`: ≤ 10 nM; for `COc1cccc(-c2cccc(NC(=O)c3nc4c(s3)CNCC4)c2C#N)c1F`: ≤ 100 nM.
Same read-out and setting: then `Cc1c(NC(=O)c2nc3c(s2)CNCC3)cccc1-c1ccc2c(c1)OCCO2`, with ≤ 100 nM; and `Cc1c(-c2ccc3c(c2)OCCO3)cccc1-c1nc2cc(CNCCO)cc(C)c2o1`, with ≤ 10 nM; and `COc1cc(OC)c(F)c(-c2cccc(-c3nc4c(s3)CNCC4)c2C)c1F`, with ≤ 100 nM.
In the case of `Cc1cc(C(=O)Nc2cc(F)cc(-c3ccc4c(c3)OCCO4)c2C)ncc1CNCCO`, the IC50 was ≤ 10 nM.
As to `COc1cccc(-c2cccc(NC(=O)c3cn4c(n3)CNCC4)c2C#N)c1F`, the IC50 is ≤ 100 nM.
Same read-out and setting: the same measure for `Cc1c(-c2ccccc2)cccc1-c1nc2c(Cl)cc(CNCCO)cn2n1`: ≤ 100 nM; for `Cc1c(C2=CCCCC2)cccc1-c1nc2c(s1)CNCC2`: ≤ 100 nM.
The same measure, in the same setting: the same measure for `Cc1c(-c2ccccc2)cccc1-c1cn2cc(CNCCO)ncc2n1`: ≤ 100 nM; for `Cc1c(Nc2nccc3c(CNCCO)ccnc23)cccc1-c1ccc2c(c1)OCCO2`: ≤ 10 nM.
Still for that read-out and setting: then `N#Cc1c(Nc2nccc3cc(CNCCO)cnc23)cccc1-c1ccccc1`, with ≤ 10 nM.
Take `N#Cc1c(NC(=O)c2ccc(CNCCO)cn2)cccc1-c1ccc2c(c1)OCCO2`: the IC50 is ≤ 10 nM.
Still for that read-out and setting: the same measure for `Cc1c(-c2ccccc2)cccc1-c1nc2cc(CNCCO)nc(C)n2n1`: ≤ 100 nM; for `N#Cc1c(NC(=O)c2nc3c(s2)CNCC3)cccc1-c1c(F)cccc1F`: ≤ 100 nM; for `Cc1c(-c2ccccc2)cccc1-c1nc2ccc(CNCCO)cn2n1`: ≤ 100 nM.
Still for that read-out and setting: the same measure for `Cc1c(-c2ccccc2)cccc1-c1nc2cc(CNCCO)c(OCCN3CCOCC3)cc2o1`: ≤ 10 nM.

For a further test, the target named is T1, Programmed cell death protein 1/Programmed cell death 1 ligand 1. In words: Inhibition of human PD-1/PDL1 protein-protein interaction. The format is protein-complex assay.
`COc1cc(OCc2cccc(-c3ccccc3)c2C)cc(OC)c1CCCC1CC(=O)N1` (stereo not drawn) had an IC50 of 18 nM.
